Results taken from US6670363B1, “Azole compounds as therapeutic agents for fungal infections” (Ranbaxy Laboratories Limited, priority 2000, dated 2003).
Values after ≈ are worked out from the molar mass of the structure shown.

Key:
Format in all cases: cell-based
[1] = test system: Histoplasma capsulatum
[2] = test system: Candida; test: In vitro MIC, NCCLS M27A, Candida species; set-up: MIC, Candida albicans 1.549 / MIC, Candida albicans Y-01-19 / MIC, C. krusei 766-1 / MIC, C. krusei Q. C / MIC, Candida tropicalis ATCC / MIC, C. glabrata 90030: unit not given beside the values; MIC, Candida albicans A 26 / MIC, C. parapsilosis Q. C.: unit not given here; conditions: for MIC, C. glabrata 90030: C. glabrata strain 90030; for MIC, C. krusei 766-1: C. krusei strain 766-1; for MIC, C. krusei Q. C: C. krusei strain Q. C; for MIC, C. parapsilosis Q. C.: C. parapsilosis strain Q. C.; for MIC, Candida albicans 1.549: Candida albicans strain 1.549; for MIC, Candida albicans A 26: Candida albicans strain A 26; for MIC, Candida albicans Y-01-19: Candida albicans strain Y-01-19
[3] = test system: Cryptococcus neoformans; test: In vitro MIC, NCCLS M27A, Cryptococcus neoformans; set-up: MIC, C. neoformans I: unit not given beside the values; MIC, C. neoformans M 106: unit not given here; conditions: for MIC, C. neoformans I: C. neoformans strain I; for MIC, C. neoformans M 106: C. neoformans strain M 106
[4] = test system: A. fumigatus s 1008; test: In vitro MIC, NCCLS M38P broth method (RPMI 1640/MOPS pH7), Aspergillus fumigatus; conditions: A. fumigatus strain 1008

SMILES | MIC, H. capsulatum [1] [µg/mL] | MIC, C. glabrata 90030 [2] | MIC, C. krusei 766-1 [2] | MIC, C. krusei Q. C [2] | MIC, C. parapsilosis Q. C. [2] | MIC, Candida albicans 1.549 [2] | MIC, Candida albicans A 26 [2] | MIC, Candida albicans Y-01-19 [2] | MIC, Candida tropicalis ATCC [2] | MIC, C. neoformans I [3] | MIC, C. neoformans M 106 [3] | MIC, A. fumigatus 1008 [4]
O=c1n(-c2ccc(N3CCN(c4ccccc4)CC3)cc2)cnn1CC(O)(Cn1cncn1)c1ccc(F)cc1F (stereo not drawn) [Compound 45, 2-[2-(2,4-Difluorophenyl)-2-hydroxy-3-(1H-1,2,4-triazol-1-yl)propyl]-4-{4-[1-phenyl-1-piperazinyl]phenyl}-3-(2H,4H)-1,2,4-triazolone] | 3.12 (≈ 5.59 µM) | 0.10 | 0.80 | 0.10 | <0.02 | 0.05 | <0.02 | 0.05 | 3.12 | <0.02 | 0.10 | >12.5
Cc1ccc(N2CCN(c3ccc(-n4cnn([C@H](C)[C@](O)(Cn5cncn5)c5ccc(F)cc5F)c4=O)cc3)CC2)cc1Cl [Compound 17, 2-{[1R2R/1S2S]-2-(2,4-Difluorophenyl)-2-hydroxy-1-methyl-3-(1H-1,2,4-triazol-1-yl)propyl}-4-{4-[4-(3-chloro-4-methylphenyl)-1-piperazinyl]phenyl}-3-(2H,4H)-1,2,4-triazolone] | 0.25 (≈ 0.403 µM) | 0.50 | 0.50 | 0.50 | <0.03 | 0.25 | <0.03 | 0.25 | <0.03 | <0.03 | <0.03 | 0.25
Cc1ccc(N2CCN(c3ccc(-n4cnn([C@H](C)[C@@](O)(Cn5cncn5)c5ccc(F)cc5F)c4=O)cc3)CC2)cc1Cl [Compound 18, 2-{[1R2S/1S2R]-2-(2,4-Difluorophenyl)-2-hydroxy-1-methyl-3-(1H-1,2,4-triazol-1-yl)propyl}-4-{4-[4-(3-chloro-4-methylphenyl)-1-piperazinyl]phenyl}-3-(2H,4H)-1,2,4-triazolone] | 0.25 (≈ 0.403 µM) | 1.00 | >16 | 2.00 | 0.25 | 2.00 | <0.03 | 1.00 | <0.03 | 0.12 | 0.25 | >16
COc1ccc(F)cc1N1CCN(c2ccc(-n3c(C)nn([C@H](C)[C@@](O)(Cn4cncn4)c4ccc(F)cc4F)c3=O)cc2)CC1 [Compound 28, 2-{[1R2S/1S2R]-2-(2,4-Difluorophenyl)-2-hydroxy-1-methyl-3-(1H-1,2,4-triazol-1-yl)propyl}-4-{4-[4-(2-methoxy-5-fluorophenyl)-1-piperazinyl]phenyl}-3-(2H,4H)-5-methyl-1,2,4-triazolone] | 2 (≈ 3.15 µM) | 4.00 | >16 | 16.0 | 0.25 | 8.00 | <0.03 | 4.00 | <0.03 | 0.25 | 1.00 | >16
COc1ccc(F)cc1N1CCN(c2ccc(-n3c(C)nn([C@H](C)[C@](O)(Cn4cncn4)c4ccc(F)cc4F)c3=O)cc2)CC1 [Compound 27, 2-{[1R2R/1S2S]-2-(2,4-Difluorophenyl)-2-hydroxy-1-methyl-3-(1H-1,2,4-triazol-1-yl)propyl}-4-{4-[4-(2-methoxy-5-fluorophenyl)-1-piperazinyl]phenyl}-3-(2H,4H)-5-methyl-1,2,4-triazolone] | < 0.03 | 1.00 | 2.00 | 0.50 | <0.03 | 1.00 | <0.03 | 0.50 | <0.03 | <0.03 | <0.03 | >16
C[C@@H](n1ncn(-c2ccc(N3CCN(c4cccc(C(F)(F)F)c4)CC3)cc2)c1=O)[C@@](O)(Cn1cncn1)c1ccc(F)cc1F [Compound 10, 2-{[1R2S/1S2R]-2-(2,4-Difluorophenyl)-2-hydroxy-1-methyl-3-(1H-1,2,4-triazol-1-yl)propyl}-4-{4-[4-(3-trifluoromethylphenyl)-1-piperazinyl]phenyl}-3-(2H,4H)-1,2,4-triazolone] | 0.06 (≈ 0.0937 µM) | 0.50 | >16 | 1.00 | <0.03 | 0.50 | <0.03 | 1.00 | <0.03 | 0.06 | <0.03 | >16
C[C@@H](n1ncn(-c2ccc(N3CCN(c4ccc(F)c(Cl)c4)CC3)cc2)c1=O)[C@](O)(Cn1cncn1)c1ccc(F)cc1F [Compound 15, 2-{[1R2R/1S2S]-2-(2,4-Difluorophenyl)-2-hydroxy-1-methyl-3-(1H-1,2,4-triazol-1-yl)propyl}-4-{4-[4-(3-chloro-4-fluorophenyl)-1-piperazinyl]phenyl}-3-(2H,4H)-1,2,4-triazolone] | 0.12 (≈ 0.192 µM) | 0.50 | 0.50 | 0.25 | <0.03 | 1.00 | <0.03 | 0.25 | <0.03 | <0.03 | <0.03 | 0.50
Cc1ccc(N2CCN(c3ccc(-n4cnn([C@H](C)[C@](O)(Cn5cncn5)c5ccc(F)cc5F)c4=O)cc3)CC2)cc1C [Compound 23, 2-{[1R2R/1S2S]-2-(2,4-Difluorophenyl)-2-hydroxy-1-methyl-3-(1H-1,2,4-triazol-1-yl)propyl}-4-{4-[4-(3,4-dimethylphenyl)-1-piperazinyl]phenyl}-3-(2H,4H)-1,2,4-triazolone] | 0.06 (≈ 0.0999 µM) | 0.50 | 0.50 | 0.25 | <0.03 | 0.25 | <0.03 | 0.50 | <0.03 | <0.03 | <0.03 | 1.00
Cc1ccc(N2CCN(c3ccc(-n4cnn([C@H](C)[C@@](O)(Cn5cncn5)c5ccc(F)cc5F)c4=O)cc3)CC2)c(C)c1 [Compound 20, 2-{[1R2S/1S2R]-2-(2,4-Difluorophenyl)-2-hydroxy-1-methyl-3-(1H-1,2,4-triazol-1-yl)propyl}-4-{4-[4-(2,4-dimethylphenyl)-1-piperazinyl]phenyl}-3-(2H,4H)-1,2,4-triazolone] | 0.5 (≈ 0.832 µM) | 2.00 | >16 | 2.00 | 0.12 | 8.00 | <0.03 | 2.00 | <0.03 | 0.25 | 0.25 | >16
C[C@@H](n1ncn(-c2ccc(N3CCN(c4ccccc4)CC3)cc2)c1=O)[C@@](O)(Cn1cncn1)c1ccc(F)cc1F [Compound 6, 2-{[1R2S/1S2R]-2-(2,4-Difluorophenyl)-2-hydroxy-1-methyl-3-(1H-1,2,4-triazol-1-yl)propyl}-4-[4-(1-phenylpiperazinyl)phenyl]-3-(2H,4H)-1,2,4-triazolone] | 0.12 (≈ 0.21 µM) | >16 | >16 | 16.0 | 0.125 | 2.00 | <0.03 | 8.00 | <0.03 | 0.25 | 2.00 | >16
O=c1n(-c2ccc(N3CCN(c4ccc(F)cc4Cl)CC3)cc2)cnn1CC(O)(Cn1cncn1)c1ccc(F)cc1F (stereo not drawn) [Compound 58, 2-[2-(2,4-Difluorophenyl)-2-hydroxy-3-(1H-1,2,4-triazol-1-yl)propyl]-4-{4-[4-(2-chloro-4-fluorophenyl)-1-piperazinyl]phenyl}-3-(2H,4H)-1,2,4-triazolone] | 0.004 (≈ 0.00655 µM) | 0.25 | 1.00 | 0.25 | <0.03 | 0.03 | <0.03 | 0.03 | <0.03 | <0.03 | <0.03 | 2.00
